What was measured:
[1] = system: Crb1^rd8/rd8 mouse suffering from fundus degenerative retinopathy; assay: Intragastric administration therapy of Crb1^rd8/rd8 mouse suffering from fundus degenerative retinopathy; count of fundus light spots; assay type: in vivo; conditions: for Eyes with slight decrease of crystalline lens transparency (fundus light spots cannot be observed clearly): 0.3 g/kg intragastric; for Change of spots 4 weeks after drug administration / Change of spots 2 weeks after drug administration: change of number of fundus light spots, Crb1^rd8/rd8 mouse, mean ± s; for Change of spots 4 weeks after drug administration: 0.3 g/kg intragastric once every other day for 4 weeks, P = 0.0005 vs model control group; for Change of spots 2 weeks after drug administration: 0.3 g/kg intragastric once every other day, P = 0.1518 vs model control group
Experimental: The mouse is anaesthetized and pupils are dilated. A cornea remains moist by applying hydroxypropyl methylcellulose eye drops regularly. A mouse fundus photo is obtained by using a Micron IV mouse fundus camera (Phoenix Research Laboratories, Inc., Pleasanton, CA, USA).
When a sample for test is prepared, 4 mL of castor oil which is already autoclaved is measured, 1.2 g of compound 6 powder is weighted, 1-2 mL of castor oil is added, full grinding is performed, a ground drug and residual castor oil are all transferred to a 50 mL tube with 36 mL ultrapure water to be oscillated and uniformly mixed for still standing overnight, so a compound 6 suspension with a concentration being 30 mg/mL is prepared, and the prepared drug liquid is labeled, saved at a normal temperature and used up within a month.
• Species and strains: Crb1^rd8/rd8 mouse • Grade: SPF grade • Quantity and gender: 18 mice, either gender • Weight range: 16-24 g • Supply unit: Gempharmatech Co., Ltd.
When drug administration starts, a healthy one-month-old Crb1^rd8/rd8 mouse is selected for an experiment.
Animals are hierarchically divided according to weights and then randomly divided into a model control group and a compound 6 group.
Drug administration route and method: intragastric administration, 10.0 mL/kg weight
Drug administration frequency and time limit: once every other day, for 4 weeks
Dosage of the compound 6 is 0.3 g/kg weight for the mouse and is converted according to previous clinical medication.
One-month-old Crb1^rd8/rd8 mice are randomly divided into the model control group and the compound 6 drug administration group. A solvent or a compound 6 drug is administered intragastrically to the animals, a dosage of the compound 6 is 0.3 g/kg, once every other day, continuous drug administration for 4 weeks. The number of fundus light slots 2 weeks and 4 weeks after the mouse is administered intragastrically is recorded for analysis and comparison.
A change of the number of fundus light spots of the mice at each time point after drug administration is used as a parameter, and SPSS software is used for the statistic analysis. A statistical result is represented by X+s; and an inspection level=0.05, and an average of experiment data and statistically processed data remain 2 decimal places.

[2] = system: drusen-like lesion in retinal tissue of a macaque; conditions: administered to vitreous humor; cited from earlier work

Row | SMILES | Inhibition of fundus degenerative retinopathy ([1]; Crb1^rd8/rd8 mice, dosage of 0.3 g/kg) | Eyes with slight decrease of crystalline lens transparency (fundus light spots cannot be observed clearly) ([1]; Week 2 of the experiment, attributed to anesthesia, correlation with compound not excluded) | Eyes with slight decrease of crystalline lens transparency (fundus light spots cannot be observed clearly) ([1]; Week 4 of the experiment, 1/18 eye also in model control group) | Change of spots 4 weeks after drug administration [1] | Change of spots 4 weeks after drug administration ([1]; listed as compound 6) | Change of spots 2 weeks after drug administration [1] | Change of spots 2 weeks after drug administration ([1]; listed as compound 6) | Size of the drusen-like lesion in retinal tissue compared with a control [2]
1 | CCCCCCCCOC(=O)c1cc(O)c(O)c(O)c1 [Compound 6, octyl gallate] | effectively inhibit | 2/18 | 1/18 | −3.63 ± 4.06 | −3.63±4.06 | 1.31 ± 3.18 | 1.31±3.18 | 
2 | CN[C@H](CC(C)C)C(=O)N[C@H]1C(=O)N[C@@H](CC(N)=O)C(=O)N[C@H]2C(=O)N[C@H]3C(=O)N[C@H](C(=O)N[C@H](C(=O)O)c4cc(O)cc(O)c4-c4cc3ccc4O)[C@H](O)c3ccc(c(Cl)c3)Oc3cc2cc(c3O[C@@H]2O[C@H](CO)[C@@H](O)[C@H](O)[C@H]2O[C@H]2C[C@](C)(N)[C@H](O)[C@H](C)O2)Oc2ccc(cc2Cl)[C@H]1O [vancomycin] |  |  |  |  |  |  |  | reduce a size of the drusen-like lesion
